Data taken from patent US20070021421A1 (priority 2005, published 2007).
Entries after “also recorded” stand apart in the source; their conditions may differ. Like-named read-outs stand apart in the source and are kept apart here.

Columns and labels:
SOD1 G93A mice = experiment: Propranolol in drinking water of the SOD1 G93A mouse model of ALS (gait, walking ability, survival, body weight); assay type: in vivo
Source text: Briefly, a motor-driven treadmill with a transparent treadmill belt was built. A high-speed digital video camera was mounted below the transparent treadmill belt. An acrylic compartment, ˜5 cm wide by ˜25 cm long, the length of which was adjustable, was mounted on top of the treadmill to maintain the mouse that was walking on the treadmill belt within the view of the camera. Digital video images of the underside of mice were collected at 80 frames per second. […] The color images were converted to their binary matrix equivalents, and the areas (in pixels) of the approaching or retreating paws relative to the belt and camera were calculated throughout each stride. Plotting the area of each digital paw print (paw contact area) imaged sequentially in time provided a dynamic gait signal, representing the temporal record of paw placement relative to the treadmill belt (refer to FIGS. 1A and 1B). From these digital paw print images, indices of gait and gait variability were determined. Each gait signal for each limb comprised a stride duration (stride time), which included the stance duration when the paw of a limb was in contact with the walking surface, plus the swing duration when the paw of the same limb was not in contact with the walking surface. Stance duration was further subdivided into braking duration (increasing paw contact area over time) and propulsion duration (decreasing paw contact area over time) (refer to FIG. 1B).
Stride frequency was calculated by counting the number of gait signals over time. Stride length was calculated from the equation: speed=stride frequency X stride length. To obtain stance widths and paw placement angles at full stance, ellipses were fitted to the paws, and the centers, vertices, and major axes of the ellipses were determined. Forelimb and hind limb stance widths were calculated as the perpendicular distance between the major axes of the left and right paw images during peak stance. Gait data were collected and pooled from both the left and right forelimbs, and the left and right hind limbs.
Accordingly, five SOD1 G93A mice were treated with propranolol, the drug having been added to their drinking water beginning at six weeks of age.

ALS patients = conditions: cited from earlier work
mice = conditions: cited from earlier work
C57BL/6J mice = test system: C57BL/6J mice
Source text: Since PD, HD, and ALS share aspects of pathogenesis and pathology of motor dysfunction, gait dynamics were also studied in the SOD1 G93A transgenic mouse model of ALS (Gurney et al. Science 1994, 264: 1772-1775) to compare gait variability in mouse models of basal ganglia disease to a mouse model of motor neuron disease. Male C57BL/6J mice (7-8 weeks; ˜22 gm) were purchased from The Jackson Laboratory (Bar Harbor, Me.). Mice transgenic for the mutated human SOD1 G93A (TgN[SOD1-G93A]lGur) (SOD1 G93A) and wild-type human SOD1 (TgN[SOD1]2Gur) (wild-type controls) were purchased from The Jackson Laboratory (Bar Harbor, ME) when the mice were ˜7.5 weeks old. Animals were maintained on a 12-hour light: 12-hour dark schedule with ad libitum access to food and water. Handling and care of mice were consistent with federal guidelines and approved institutional protocols.
MPTP. A mouse model of PD was generated in the following manner. The dopaminergic neurotoxin 1-methyl-4-phenyl-1,2,3,6-tetrahydropyridine (MPTP) (Sigma-Aldrich, St. Louis, Mo.) was dissolved in saline and was administered 30 mg/kg i.p. to 7 mice every 24 hours for 3 days (MPTP-treated mice), based on previously published studies (Colotla et al. Neurotoxicol Teratol 1990, 12: 405-407; Shimoji et al. Brain Res Mol Brain Res 2005, 134:103-108). Equivolume (0.2 ml) of saline was administered i.p. to 7 control mice every 24 hours for 3 days (saline-treated mice).
3NP. A mouse model of HD was generated in the following manner. The mitochondrial toxin 3-nitropropionic acid (3NP) (Sigma-Aldrich, St. Louis, Mo.) was dissolved in saline and was administered 3 times to 6 mice: 25 mg/kg i.p. twice, separated by 12 hours (cumulative dose of 50 mg/kg), then 25 mg/kg 24 hours later (cumulative dose of 75 mg/kg) (3NP-treated mice). Equivolume (0.2 ml) of saline was administered i.p. according to the same schedule to 6 control mice.
Gait dynamics were recorded using ventral plane videography, as previously described (Kale et al. Alcohol Clin Exp Res 2004, 28: 1839-1848; Hampton et al. Physiol Behav 2004, 82: 381-389). Briefly, a motor-driven treadmill with a transparent treadmill belt was built. A high-speed digital video camera was mounted below the transparent treadmill belt. An acrylic compartment, ˜5 cm wide by ˜25 cm long, the length of which was adjustable, was mounted on top of the treadmill to maintain the mouse that was walking on the treadmill belt within the view of the camera. Digital video images of the underside of mice were collected at 80 frames per second. Accordingly, each image obtained represented a 12.5 ms time interval; and the paw area of each image indicated the temporal placement of the paw relative to the treadmill belt. The color images were converted to their binary matrix equivalents, and the areas (in pixels) of the approaching or retreating paws relative to the belt and camera were calculated throughout each stride. Plotting the area of each digital paw print (paw contact area) imaged sequentially in time provided a dynamic gait signal, representing the temporal record of paw placement relative to the treadmill belt (refer to FIGS. 1A and 1B). From these digital paw print images, indices of gait and gait variability were determined. Each gait signal for each limb comprised a stride duration (stride time), which included the stance duration when the paw of a limb was in contact with the walking surface, plus the swing duration when the paw of the same limb was not in contact with the walking surface. Stance duration was further subdivided into braking duration (increasing paw contact area over time) and propulsion duration (decreasing paw contact area over time) (refer to FIG. 1B).
Stride frequency was calculated by counting the number of gait signals over time. Stride length was calculated from the equation: speed=stride frequency X stride length.

rats = conditions: MPTP 3 mg/kg; rats (Tsai et al.); cited from earlier work
[1] = cumulative dose of 560 mg/kg of 3NP
[2] = 3NP 75 mg/kg cumulative dose, 34 cm/s, n=3
[3] = 3NP 75 mg/kg cumulative dose, mice that could walk
[4] = 3NP 75 mg/kg cumulative, two mice with hind limb gait failure, forelimb stepping only
[5] = after 2nd administration of 3NP (50 mg/kg cumulative)
[6] = MPTP 90 mg/kg cumulative dose, 34 cm/s
[7] = MPTP after 3 treatments, 34 cm/s
[8] = MPTP, 3 administrations of 30 mg/kg, 34 cm/s

CC(C)NCC(O)COc1cccc2ccccc12 (centres unmarked) [propranolol]
increase in paw placement angle variability with disease progression (SOD1 G93A mice; age 12 weeks through 18 weeks): blunted or prevented; also recorded: prevented or diminished | extent of gait disturbances (SOD1 G93A mice; propranolol in drinking water from age ~42 days, five mice): mitigated and delayed | stride length (SOD1 G93A mice; propranolol in drinking water, vs longer strides with untreated tap water): more normal | body weight (SOD1 G93A mice; relative to tap water-treated control mice, FIG. 8): reduction in body weight | mice that could successfully walk on a moving treadmill belt (SOD1 G93A mice; ~16 weeks of age, tap water controls one out of five): three out of five | mice surviving (SOD1 G93A mice; ~age 17 weeks, five mice per group, tap water controls one): 3

Nc1nc2ccc(OC(F)(F)F)cc2s1 [Riluzole]
side effects (ALS patients): causes liver damage

O=C(O)CC[N+](=O)[O-] [3NP, 3-nitropropionic acid]
forelimb stride length (mice; [1]): comparable to saline-treated mice | hind limb stride length (mice; [1]): shortened | stride length of forelimbs and hind limbs (mice; cumulative dose of 3NP 340 mg/kg): no differences | stride length (C57BL/6J mice; 3NP 75 mg/kg cumulative dose i.p., 34 cm/s, n=3 mice that could walk): 7.3 ± 0.1 cm | % Stance Duration (C57BL/6J mice; [2]): 59.4±2.3% | % Swing Duration (C57BL/6J mice; [2]): 40.6±2.3% | Forelimb Paw Placement Angle (C57BL/6J mice; [2]): 3.5 ± 1.1 ° | Forelimb Stance Width (C57BL/6J mice; [2]): 1.7 ± 0.1 cm | Hind limb Paw Placement Angle (C57BL/6J mice; [2]): 15.2±1.0 ° | Hind limb Stance Width (C57BL/6J mice; [2]): 2.8±0.2 cm | Stride Duration (C57BL/6J mice; [2]): 217 ± 5 ms | Stride Frequency (C57BL/6J mice; [2]): 4.9 ± 0.1 Hz | percentage of stance duration spent in propulsion (propulsion/stance) of the hind limbs (C57BL/6J mice; [2]): 45.2±2.5% | CV of forelimb stance width (C57BL/6J mice; [3]): 17.3±2.4% | CV of forelimb stride length (C57BL/6J mice; [3]): 17.9±1.6% | Stance width variability of the forelimbs (C57BL/6J mice; [3]): 0.31±0.04 cm | Hind limb stride length variability and hind limb stance width variability (C57BL/6J mice; 3NP 75 mg/kg cumulative dose, mice that could walk, vs saline-treated mice): not different | Stride length variability of the forelimbs (C57BL/6J mice; 3NP 75 mg/kg cumulative dose, three mice that could walk): 1.31±0.09 cm | stance duration (forelimbs) (C57BL/6J mice; [4]): 133 ± 5 ms | stride frequency (forelimbs) (C57BL/6J mice; [4]): 5.0±0.1 Hz | stride length of forelimbs (C57BL/6J mice; [4]): 7.1±0.1 cm | Stride length, stride frequency, stance duration, and swing duration (C57BL/6J mice; after 1st and 2nd administrations of 25 mg/kg 3NP): not affected | CV of forelimb stance width (C57BL/6J mice; [5]): 15.0±1.2% | Stance width variability of the forelimbs (C57BL/6J mice; [5]): 0.28±0.01 cm | stride length variability and stance width variability of the hind limbs (C57BL/6J mice; [5]): Neither stride length variability nor stance width variability of the hind limbs was affected | paw placement angle of the hind limbs (C57BL/6J mice; after 2nd administration of 3NP (cumulative dose of 50 mg/kg), n=6): 16.6±1.2 ° | 3NP-treated mice that could not walk on the treadmill belt (C57BL/6J mice; after 3rd administration (75 mg/kg cumulative dose), 34 cm/s, 6 mice): half | effect of aggressive doses (C57BL/6J mice; aggressive (higher) doses of 3NP, data not shown): high mortality or the inability of the mice to walk at all on the treadmill belt

CN1CC=C(c2ccccc2)CC1 [MPTP, 1-methyl-4-phenyl-1,2,3,6-tetrahydropyridine]
Forelimb Paw Placement Angle (C57BL/6J mice; [6]): 2.6 ± 0.4 ° | Forelimb Stance Width (C57BL/6J mice; [6]): 1.6 ± 0.1 cm | Hind limb Paw Placement Angle (C57BL/6J mice; [6]): 10.8 ± 1.3 ° | Hind limb Stance Width (C57BL/6J mice; [6]): 2.2 ± 0.1 cm | Stride Duration (C57BL/6J mice; MPTP 90 mg/kg cumulative dose, 34 cm/s, n=7): 194 ± 1 ms | % Stance Duration (C57BL/6J mice; MPTP 90 mg/kg cumulative dose, 34 cm/s, stance/stride): 55.9 ± 1.1% | % Swing Duration (C57BL/6J mice; MPTP 90 mg/kg cumulative dose, 34 cm/s, swing/stride): 44.1 ± 1.1% | CV of forelimb stance width (C57BL/6J mice; [7]): 16.7±1.3% | CV of hind limb stance width (C57BL/6J mice; [7]): 9.1±1.1% | Stance width variability of the forelimbs (C57BL/6J mice; [7]): 0.26±0.01 cm | Stance width variability of the hind limbs (C57BL/6J mice; [7]): 0.20±0.02 cm | coefficient of variation (CV) of forelimb stride length (C57BL/6J mice; [7]): 13.6±0.8% | CV of hind limb stride length (C57BL/6J mice; MPTP after 3 treatments, 34 cm/s, NS vs saline): 10.0±1.5% | Stride length variability of the forelimbs (C57BL/6J mice; MPTP after 3 treatments, standard deviation, 34 cm/s): 0.91±0.04 cm | Stride length variability of the hind limbs (C57BL/6J mice; MPTP after 3 treatments, vs saline-treated mice): not different | stance duration of the forelimbs (C57BL/6J mice; [8]): 116 ± 2 ms | swing duration of the hind limbs (C57BL/6J mice; [8]): 92 ± 3 ms | stride length (rats): significantly reduce stride length
